# Data taken from PMC9896555, “Cyclic Acetals as Novel Long-Lasting Mosquito Repellents” (Journal of Agricultural and Food Chemistry, 2023).
# What was measured:
# Aedes albopictus [1] = test: Protection time at 0.17 mg/cm2, human-bait technique; type: in vivo; settings: for Average PT >95% (% coefficient of variation) / Estimated 100% PT (complete protection time, mean±SE): at the dose of 0.17mg/cm2; for Estimated 100% PT (complete protection time, mean±SE): Kaplan–Meier estimate
# Protocol: To evaluate the protection time of derivatives, the PE % was measured with 100 μL of a 5% ethanol solution, corresponding to 0.17 mg/cm^2 of exposed skin, under the same laboratory conditions. Mosquito-exposed skin was treated with 100 μL of ethanol, as the negative hand control. For each volunteer (up to 8), the test was performed every hour, up to 8 h from the application. The protection time of DEET and Icaridin was measured under the same conditions. Since these trials were run in parallel with those aimed to profile the cytotoxicity of the compounds (paragraph 2.6), we interrupted the experiments for those compounds showing to have higher cytotoxicity than Icaridin and DEET as soon as the results were available. For this reason, the number of volunteers differs among the compounds.
# The average time until protection which was higher than 95% protection time was considered for each compound. Moreover, for the compounds tested on at least three volunteers, the complete (100%) protection time was also estimated (SPSS 28.01.0) using the Kaplan–Meier survivor function procedure.[22]
# Aedes albopictus [2] = test: Effective dose / protection efficacy, human-bait technique; type: in vivo; settings: for Protection efficacy (dose to obtain complete protection (100%) from bite attempts): applied on skin of volunteers, 3 min exposure
# Protocol: The repellence of DEET, Icaridin (both supplied by Istituto Biochimico VEBI s.r.l.), acetals, and the synthesized hydroxyacetals was evaluated againstAedes albopictususing the human-bait technique (to simulate the condition of human skin on which repellents will be applied).[22]A. albopictuswas reared and tested at 26 ± 2 °C, ≥60 ± 10% relative humidity (RH), and at 14:10 h light/dark photoperiod, within Plexiglas cylindrical laboratory cages (35 cm diameter, 60 cm length) with one end closed by a net. During the tests, cages contained ≈150 nulliparous, 4–7 day-old, nonblood-fed females. For each compound to be tested, up to six volunteers participated in the trial.
# The study was approved by the Regional Ethics Committee for Clinical Trials of Tuscany Region with the registered number 20383. Volunteers agreed to take part in the experiments following informed consent; only volunteers non-allergic to mosquito bites participated in the trials. On the day of the bioassay, they had no contact with lotions, perfumes, oils, or perfumed soaps. They wore latex surgical gloves, in which a dorsal square area of 30 cm^2 was cut open. Mosquito-exposed skin was treated with 50 μL of ethanol, as the negative hand control. The other hand was treated with 50 μL of the tested compounds in ethanol solution (dosages corresponding to 0.081, 0.17, 0.33, 0.5, 0.83, 1.7, 8.3, 16.7, and 83.3 μg/cm^2). Both hands were presented in the same test cage. The number of probing mosquitoes in a 3 min exposure period was recorded. During each test, the control and the treated hand were presented interchanged to verify the mosquitoes’ readiness to bite. Trials were considered valid only if at least 30 mosquitoes performed probing behavior on the control hand before each repellent dosage was tested. The protection efficacy (PE %) obtained from all replicates was calculated, according to the WHO guidelines[31] using this formula [drawing 1]
# To evaluate the protection efficacy, volunteers applied increasing doses of the compounds to the skin on the back of their hands (30 cm^2, while the rest was covered with a rubber glove) and counted the number of mosquitoes attempting to bite; the solvent only was used on the control hand. The protection (percentage of repelled mosquitoes) was calculated as reported in the Material and Methods section.
Structure (SMILES),"Protection time PE% (Aedes albopictus [1]; 0.17mg/cm2, 0 min) [%]","Protection time PE% (Aedes albopictus [1]; 0.17mg/cm2, 1 h) [%]","Protection time PE% (Aedes albopictus [1]; 0.17mg/cm2, 2 h) [%]","Protection time PE% (Aedes albopictus [1]; 0.17mg/cm2, 3 h) [%]","Protection time PE% (Aedes albopictus [1]; 0.17mg/cm2, 4 h) [%]","Protection time PE% (Aedes albopictus [1]; 0.17mg/cm2, 5 h) [%]","Protection time PE% (Aedes albopictus [1]; 0.17mg/cm2, 6 h) [%]","Protection time PE% (Aedes albopictus [1]; 0.17mg/cm2, 7 h) [%]","Protection time PE% (Aedes albopictus [1]; 0.17mg/cm2, 8 h) [%]",Average PT >95% (% coefficient of variation) (Aedes albopictus [1]),"Estimated 100% PT (complete protection time, mean±SE) (Aedes albopictus [1]) [min]",Protection efficacy PE% (Aedes albopictus [2]; 0.081 µg/cm2) [%],Protection efficacy PE% (Aedes albopictus [2]; 0.17 µg/cm2) [%],Protection efficacy PE% (Aedes albopictus [2]; 0.33 µg/cm2) [%],Protection efficacy PE% (Aedes albopictus [2]; 0.5 µg/cm2) [%],Protection efficacy PE% (Aedes albopictus [2]; 0.83 µg/cm2) [%],Protection efficacy PE% (Aedes albopictus [2]; 1.7 µg/cm2) [%],Protection efficacy PE% (Aedes albopictus [2]; 8.3 µg/cm2) [%],Protection efficacy PE% (Aedes albopictus [2]; 16.7 µg/cm2) [%],Protection efficacy PE% (Aedes albopictus [2]; 83.3 µg/cm2) [%],other results
CCCCCCCC1OCC(CO)O1 (mixture of isomers) [9a],100,99.77,99.42,100,100,99.61,95.75,95.88,94.12,420 (4.5) min,307 ± 53,0,33.33,72.85,74.69,82.72,90.12,100,100,100,"Protection time (95% protection) (Aedes albopictus [1]; dose of 0.17 mg/cm^2, tests ended after 8 h): 7 h; 100% PE (Aedes albopictus [2]; Table S1): 8.3 µg/cm2; Protection efficacy (dose to obtain complete protection (100%) from bite attempts) (Aedes albopictus [2]): 8.3 μg/cm^2"
CCCCCCCCCC1OCC(CO)O1 (mixture of isomers) [18a],100,97.63,100,98.31,99.28,99.23,97.68,92.86,95.18,420 (2.1) min,190 ± 50,22.98,41.74,40.93,77.98,69.25,87.67,95.83,100,100,Protection efficacy (dose to obtain complete protection (100%) from bite attempts) (Aedes albopictus [2]): 16.7 μg/cm^2
